The values that follow come from patent publication US6987100B2, “Pharmaceutical compositions for treating bone lesions in multiple myeloma” (Astellas Pharm Inc., priority 1998, dated 2006).

Read-outs that look alike come from different tables or passages of the source.

For data set [1], the system named is mice transplanted with myeloma cells ARH-77. Put plainly: Bone resorption inhibition test in multiple myeloma model animals (urinary deoxypyridinoline). In kind it is in vivo, C.B-17/lcr-scid Jcl mice. To be noted: 0.1 mg/kg intravenous once; urine on day 4 after administration; mice with paralysis in hind limbs; vs solvent group.
Method: On the next day, 10^6 cells/mouse of myeloma cells ARH-77 were transplanted into the left cardiac ventricle of each animal under anesthesia with pentobarbital. […] On the day 4 after the administration, a physiological saline load (30 ml/kg po) was burdened to these mice and the urine was collected after 6 hours. Since the mice suffering from paralysis in hind limbs could hardly urinate, such an animal was subjected to abdominal section and the urine was directly collected from the bladder. Normal animals (sham-operated group), into the left cardiac ventricle of which PBS (0.1 ml/animal) was injected as a substitute for the myeloma cells, were treated in the same manner. The urinary deoxypyridinoline (Dpyr) level was measured by using a [sequence]-D kit (Amersham) and corrected with the urinary creatinine level.
In the next data set the test system is patients. To be noted: intravenous 90 mg/4 weeks, cited from earlier work.
The subject of another data set is murine model of myeloma. To be noted: cited from earlier work.
The test system of data set [2] is patients with multiple myeloma. To be noted: 30 mg/day oral; cited from earlier work.
The subject of data set [3] is human myeloma cells ARH-77. Description: Myeloma cell proliferation inhibitory test. It is filed as cell-based. On the procedure:
A 5×10^4 cells/ml cell dilution of human myeloma cells […], which had been incubated in a culture flask, was prepared by using an RPMI1640 medium (containing 10% of EBS), pipetted in 1 ml portions into a 24-well plate and then incubated in a CO2 incubator at 37° C. After 6 hours, 100 μl portions of the aqueous solution of the compound A were added to give final concentrations of 0.3 to 1000 μM (three-fold serial, duplicate samples). After incubating in the CO2 incubator at 37° C. for 4 days, the viable cells were counted with the use of a Cell Counting Kit (Dojin Kagaku). By referring the value of the control prepared by adding PBS as to the cell proliferation inhibitory ratio of […], the inhibitory ratios were calculated.

For data set [4], the system named is patients with multiple myeloma. To be noted: for systemic bone salt mass, change ratio to the data before the administration: 5 patients.
Data set [5] concerns patient with multiple myeloma. Description: Clinical test 1 (multiple myeloma and bone lesions, one patient). In kind it is in vivo, human. To be noted: for M protein (IgD): blood.
For data set [6], the system named is mice transplanted with myeloma cells ARH-77. Description: Lumbar bone mineral density decrease test in multiple myeloma model animals. It is filed as in vivo. As for the experimental part: Similar to Example 1, mice suffering from paralysis in hind limbs were selected 3 weeks after the transplantation of myeloma cells. Then an aqueous solution of the compound A monohydrate (3 mg/kg) (compound A group) and the solvent alone (solvent group) were orally administered once a day for 6 days repeatedly. On the next day of the completion of the administration, a 10% formalin solution was refluxed from the left cardiac ventricle under anesthesia with pentobarbital and the lumber vertebrae was taken out. The bone mineral density in the bone tissue was measured by the DXA method. As Example 1, the normal mice (sham-operated group) were also subjected to the measurement of the bone mineral density.
Two weeks after the transplantation of the myeloma cells, the compound A was orally administered for 14 days in doses of 0.03, 0.3 and 3 mg/kg. Then the bone mineral density was measured as in the above (1) but selecting animals suffering from paralysis in hind limbs during the administration period.

Where [7] appears, read: 6 mg oral once a day, after 24 weeks.
[8] abbreviates: 3 mg oral once a day, after 8 weeks.

Turning to `NCCC(O)(P(=O)(O)O)P(=O)(O)O` [pamidronate], the “inhibition of the increase in urinary Dpyr level (bone resorption marker)” value (shortened to “inhibition of the increase”) in data set [1] was “no significant inhibition”. Further, the “Dpyr level relative to level before the administration” value in the data set with patients (after 4 weeks) was “exceeded 80%”. For the same compound, the “Dpyr level relative to level before the administration” value with patients (week 2) was “about 60%”. Besides, in the data set on murine model of myeloma, the “cytotoxic effect within the bone marrow” value was “evidence of a cytotoxic effect within the bone marrow” and the “effect on tumor growth / tumor burden” value is “no effect on tumor growth was demonstrated”.
For `O=P(O)(O)C(O)(Cc1cccnc1)P(=O)(O)O` [risedronate], in data set [1], the “inhibition of the increase” value is recorded as “no significant inhibition”. Also, in data set [2], the bone mineral density entry is on record as “elevated bone mineral density” and the bone resorption entry is “suppressed bone resorption”. In addition, in the data set on murine model of myeloma, the bone destruction result is “clear reduction in bone destruction” and the “effect on tumor growth / tumor burden” value was “no effect on tumor burden”.
With `O=P(O)(O)C(O)(Cc1cnc2ccccn12)P(=O)(O)O` [compound A, 1-hydroxy-2-(imidazo[1,2-a]pyridin-3-yl)ethane-1,1-bisphosphonic acid], the “inhibition of the increase” value in data set [1] is “significantly inhibited”. In addition, the “cell proliferation inhibitory ratio” value in data set [3] (100 μM, 4 days incubation, ARH-77) stood at 84.2%. Besides, the “inhibition of ARH-77 cell proliferation” value in data set [3] (0.3 to 1000 μM, 4 days) is recorded as “dose-dependent manner”. In addition, in data set [4] (6 mg oral once a day for 24 weeks, 6 patients), the “side effects related to the compound” value is “No side effect”. In addition, the “systemic bone salt mass, change ratio to the data before the administration” value in data set [4] (6 mg oral once a day, after 12 weeks) is 0.61%; in data set [4] (setting [7]), 1.18%. Further, the entries for the “narcotic score (analgesic type × administration frequency)” value in data set [4] (setting [7]) and in data set [4] (before the administration) were 0.60±1.342 and 1.67±3.615, respectively. In data set [4] (6 mg oral once a day, before vs after 24 weeks), the “EORTC questionnaire on QOL” value was “improvement was observed in pain, fatigue, shortness of breath, inappetence, constipation, economic conditions”. In data set [4] (6 mg oral once a day, one of the patients), the “bone lesions in bone radiographs” value was “obvious amelioration in bone lesions”. Besides, in data set [5] (setting [8]), the “Dpyr level relative to level before the administration” value was “about 60%”. The “M protein (IgD)” value turned out to be 11.6 mg/dL in data set [5] (3 mg oral once a day, after 2 weeks); 9.8 mg/dL in data set [5] (3 mg oral once a day, after 4 weeks); 7.7 mg/dL in data set [5] (setting [8]); 5.9 mg/dL in data set [5] (3 mg oral once a day, after 20 weeks); 25.8 mg/dL in data set [5] (before administration). Also, the “bone mineral density of lumbar vertebrae” value in data set [6] (3 mg/kg oral once a day for 6 days, DXA method, mice with paralysis in hind limbs) is reported as 24.7 ± 0.9 mg/cm^2. Besides, the “lumbar bone mineral density compared with solvent group” value in data set [6] (oral administration (6 days 3 mg/kg; 14 days 0.03, 0.3, 3 mg/kg)) is recorded as “higher bone mineral density than the solvent group”.
